US4757055A, “Method for selectively controlling unwanted expression or function of foreign nucleic acids in animal or mammalian cells” (The Johns Hopkins University, priority 1984, dated 1988)

Legend:
[1] = test system: E. coli B; experiment: Colony formation by E. coli B (Example 1); format: cell-based; details: 37° C.
Experimental: (1) E. coli, E. coli B was grown in M-9 medium supplemented with glucose ([…]) and 1% casamino acids. The cells were harvested in mid-log phase and resuspended in 50 μL of fresh medium containing 0-160 μM oligomer at a final cell density of 1×10^4 cells/mL. The cells were incubated for 1 h at 37° C. and then diluted with 0.9 mL of medium. A 0.8-mL aliquot was added to 2.5 mL of 0.8% Bactoagar at 45° C. This solution was quickly poured onto a 100-mm plate containing solid 1.2% Bactoagar. After solidification, the plates were incubated overnight at 37° C. and the resulting colonies were counted.

[2] = test system: transformed human fibroblast (HTB 1080) cells; experiment: Colony formation by transformed human fibroblasts (Example 1); format: cell-based; details: 50 μM; 37° C.
Experimental: (2) Transformed Syrian Hamster Embryonic Fibroblasts (BP-6) and Transformed Human Fibroblasts (HTB1080). Colony formation by the fibroblasts in the presence of the methylphosphonate analogues was carried out as described by Miller et al, Biochemistry 16, 1988 (1977).

Substance: d-ApT
- % inhibition of colony formation, E. coli B ([1]; 50 μM): 4%
- % inhibition of colony formation, E. coli B ([1]; 160 μM): 5%
- % inhibition of colony formation, HBT 1080 [2]: 12%
